Data published in US5830851A (Affymax Technologies N.V., priority 1995, dated 1998).
Residues, ends and D or L forms follow the SMILES beside them.

Columns and labels:
[1] = target: T1, murine receptor (FDC-P1/ER cells) (Mus musculus, UniProt P14753); assay: Peptide dependent growth of the EPO-responsive cell line FDC-P1/ER (thymidine incorporation); type: cell-based
T1 construct: expressed in transfected cells; host or cells: FDC-P1 (murine bone marrow derived cell line)
T1 sequence (P14753 25-507): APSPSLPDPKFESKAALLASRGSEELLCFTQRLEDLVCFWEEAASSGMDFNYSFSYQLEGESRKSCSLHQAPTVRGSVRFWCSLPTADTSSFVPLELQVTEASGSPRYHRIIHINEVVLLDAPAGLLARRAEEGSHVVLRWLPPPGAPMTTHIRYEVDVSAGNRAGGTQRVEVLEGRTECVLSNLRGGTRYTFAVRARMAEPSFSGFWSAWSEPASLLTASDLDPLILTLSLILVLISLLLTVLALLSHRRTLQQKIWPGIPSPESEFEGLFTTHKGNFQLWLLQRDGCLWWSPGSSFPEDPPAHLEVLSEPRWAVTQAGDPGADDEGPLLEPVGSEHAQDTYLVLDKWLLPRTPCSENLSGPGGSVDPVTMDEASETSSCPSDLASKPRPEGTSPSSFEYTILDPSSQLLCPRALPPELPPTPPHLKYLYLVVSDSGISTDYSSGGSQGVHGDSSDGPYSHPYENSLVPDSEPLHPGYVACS
Description: Sample Preparation: Peptides were resuspended in DMSO as a 1×10^-2 M stock solution and serially diluted in 10-fold increments to generate the following 100× solutions: [formula]
Two μl of each stock dilution was added to a cell well as described below in a total volume of 200 μl to generate final concentrations as follows: [formula]
Cells are counted and resuspended at a concentration of 800,000 cells/ml. Approximately forty thousand cells (50μ) are added to each well of a 96 well microtiter plate. Peptide is added to each well in triplicate. A standard dose response determination is run with each series of peptides. After a forty-two hr incubation (≈2 doubling), each well is pulsed with 1 μCi/well Thymidine. Cells are incubated an additional six hr at which time cells are harvested and counted to assess thymidine incorporation as an indicator of cell proliferation.

murine bone marrow cells = assay: Colony assay, murine bone marrow; type: cell-based; conditions: EPO
Description: (§1) A ten milliliter sample of peripheral blood was obtained from a healthy individual in a standard sterile heparin vacutainer tube. Murine bone marrow was obtained from the femurs of approximately 10 mice per experiment. All reagents were obtained from Stem Cell Technologies Inc. (Vancouver, Canada).
(§2) a. Experimental Protocol: Briefly, a nucleated cell count was performed to establish the number and concentration of nucleated cells in the original sample. In the case of peripheral blood, the sample is subjected to centrifugation through a Ficoll-Hypaque (1.077 g per ml) gradient at 400 g for 30 minutes at room temperature. Mononuclear cells at the interface of the Ficoll-Hypaque solution are carefully removed and diluted to a total volume of about 10 ml. The cells obtained from murine bone marrow or human peripheral blood were collected by centrifugation and the supernatant was decanted. The pelleted cells were resuspended in fresh medium and subjected to collection as described above. The washed cells were diluted in Iscove's medium/2% fetal bovine serum to the following concentration for plating:
Cells were added to methyl cellulose per directions of the manufacturer. […] Equivalent cell numbers were plated in "Complete" methylcellulose medium to assess maximal colony formation. A control plate was run with each assay minus EPO and peptide to determine background colony formation. Colonies were scored after both 10 days and 18 days of incubation.

FDCP-1/muER cells = assay: Peptide-induced initiation of cell cycle measured by DNA content; type: cell-based, murine; conditions: 10 U/ml EPO, ten hours postinduction
Description: 1. Experimental Protocol: FDCP-1/muER cells were grown to stationery phase≈3.0×10^6 cells/ml. […] Three million cells were collected at the following time points: 0, 6, 8, 10, and 12 hr. (see, FIG. 15). Cells were washed twice in cold PBS and fixed by resuspending the cell pellet in 100 μl of cold PBS followed by 900 μl of cold 70% ethanol. Cells were stained with 50 μg/ml of propidium iodine and fluorescence was measured on FACS Scan Flow cytometer. The percentage of cells in each phase was measured using the SOBR model of CellFIT software, by Becton Dickinson.

[2] = test system: human peripheral blood mononuclear cells; assay: Colony assay, human peripheral blood; type: cell-based
Description: as §1, §2
Cells were added to methyl cellulose per directions of the manufacturer. […] Equivalent cell numbers were plated in "Complete" methylcellulose medium to assess maximal colony formation. A control plate was run with each assay minus EPO and peptide to determine background colony formation. […]

[3] = Table 14, 1/28/94 experiment, scored 2/10/94
[4] = Table 14, 1/28/94 experiment, scored 2/21/94
[5] = Table 15, 2/21/94 experiment, scored 3/1/94
[6] = Table 15, 2/21/94 experiment, scored 3/14/94
[7] = set up 2/10/94, scored 2/23/94, EPO 3U/ml
[8] = set up 2/10/94, scored 2/23/94, EPO (METHOCULT)
[9] = set up 2/10/94, scored 3/4/94, EPO 3U/ml
[10] = set up 2/10/94, scored 3/4/94, EPO (METHOCULT)

CC(C)C[C@@H]1NC(=O)[C@@H]2CCCN2C(=O)CNC(=O)[C@H](Cc2ccccc2)NC(=O)[C@H](Cc2c[nH]cn2)NC(=O)[C@@H](NC(=O)[C@H](CO)NC(=O)[C@@H](N)Cc2ccc(O)cc2)CSSC[C@@H](C(N)=O)NC(=O)[C@H](C(C)C)NC(=O)[C@H](Cc2c[nH]c3ccccc23)NC(=O)[C@H]([C@@H](C)O)NC1=O [RWJ 61477] (HELM PEPTIDE1{Y.S.C.H.F.G.P.L.T.W.V.C.[am]}$PEPTIDE1,PEPTIDE1,3:R3-12:R3$$$V2.0)
EC50 [1]: 1000 nM

EPO: Erythropoietin, a glycoprotein hormone with 165 amino acids; recombinant standard
BFU-E colony-forming cell numbers (murine bone marrow cells; [3]): 5
CFU-E colony-forming cell numbers (murine bone marrow cells; [3]): 23
CFU-GM colony-forming cell numbers (murine bone marrow cells; [3]): 3
BFU-E colony-forming cell numbers (murine bone marrow cells; [4]): 30
CFU-E colony-forming cell numbers (murine bone marrow cells; [4]): 0
CFU-GM colony-forming cell numbers (murine bone marrow cells; [4]): 3
BFU-E colony-forming cell numbers (murine bone marrow cells; [5]): 3
CFU-E colony-forming cell numbers (murine bone marrow cells; [5]): 3
CFU-GM colony-forming cell numbers (murine bone marrow cells; [5]): > 10
CFU-E colony-forming cell numbers (murine bone marrow cells; [6]): 0
CFU-GM colony-forming cell numbers (murine bone marrow cells; [6]): 26
MBFU-E colony-forming cell numbers (murine bone marrow cells; [6]): 0
PBFU-E colony-forming cell numbers (murine bone marrow cells; [6]): 10
cells in S phase (FDCP-1/muER cells): approximately 45%
CFU-E [2, 7]: 7
MBFU-E [2, 7]: 7
CFU-E [2, 8]: 11
MBFU-E [2, 8]: 25
CFU-E [2, 9]: 4
CFU-GM [2, 9]: 3
MBFU-E [2, 9]: 7
PBFU-E [2, 9]: 7
CFU-E [2, 10]: 1
CFU-GM [2, 10]: 9
MBFU-E [2, 10]: 11
PBFU-E [2, 10]: 13
